Results: patent US20220273596A1, “SYNERGISTIC COMBINATION OF S-KETOROLAC AND PREGABALIN IN A PHARMACEUTICAL COMPOSITION FOR THE TREATMENT OF NEUROPATHIC PAIN” (priority 2019, published 2022)

Experiments:
[1] = tested on: mechanical hyperalgesia in rats with chronic constriction injury (CCI) of the sciatic nerve; assay: Von Frey test (mechanical hyperalgesia, 15-gram filament) in rats with chronic constriction injury of the sciatic nerve; type: in vivo, Male Wistar rats; details: for dose dependence of anti-hyperalgesic effects: given orally, alone; for Antihyperalgesic efficacy: Maximal efficacy (AUC: X ± SE): most efficacious dose po: Pregabalin 31.6 mg/Kg, S-ketorolac 3.16 mg/Kg, AUC of 180-min temporal course, n=6; for maximal antihyperalgesic effect (AUC): pregabalin 31.6 mg/Kg po, S-Ket 3.16 mg/Kg po; for Antihyperalgesic efficacy: Relative efficacy: relative to pregabalin, Pregabalin 31.6 mg/Kg po, S-ketorolac 3.16 mg/Kg po
Protocol: (§1) Male Wistar rats were used in the experiments. […] The animals were kept in polycarbonate cages under controlled temperature and light conditions, with 12-hour light/darkness cycles and free access to food and water. All experiments were performed during the light phase of the light/darkness cycles. The animals were used and handled according to the international guidelines on Ethical Standards for Investigations of Experimental Pain established by the Committee for Research and Ethical Issues of the International Association for the Study of Pain. The number of experiment animals was kept to a minimum (n=6), and at the end of the experimental assessments the animals were sacrificed using carbon dioxide.
(§2) Immediately after the rats were anesthetized, their right hind limb sciatic nerves were dissected through an incision, in which the biceps femoris muscle was dissected for locating the most proximal site to the trifurcation of the sciatic nerve, and to apply four loose ligations with silk thread.
(§3) Once the surgery was finished, the muscle was sutured with absorbable thread, and the skin was sutured with silk thread. Sham surgery in rats was performed likewise, although without ligating the sciatic nerve. All procedures were performed under aseptic conditions. The degree of hyperalgesia and allodynia in rats subjected to sciatic nerve surgery was determined using the Von Frey test (mechanical hyperalgesia) and the acetone test (cold allodynia).
Von Frey test (mechanic hyperalgesia). Rats were placed over a metallic mesh in a clear acrylic box and remained in the box at least 10 minutes before the test, in order to allow the rats to adapt to the environment. The response was determined by means of a tactile stimulus on the sole callosities of the right hindlimb with the 15-gram Von Frey filament. Ten stimuli were applied (one stimulus approximately every 3 seconds), and the response percentage was obtained (% response=number of responses/10 ×100).
(§4) In a first stage, the experimental design of the groups and the experiments were performed as follows: • a) Several groups of 6 animals with neuropathic pain (sciatic nerve ligation) were formed.
It was decided to base assessments on 6 doses of the pregabalin DRCs (0.0316, 0.1, 0.316, 1.0, 3.16 and 10 mg/Kg) and to combine them with 4 different S-ketorolac doses (0.0316, 0.10, 0.316 and 1.0 mg/Kg p.o.).

[2] = tested on: cold allodynia in rats with chronic constriction injury (CCI) of the sciatic nerve; assay: Acetone test (cold allodynia) in rats with chronic constriction injury of the sciatic nerve (Bennett and Xie model); type: in vivo, Male Wistar rats; details: for anti-allodynic effect: oral, temporal course 0-180 min; for dose dependence of anti-allodynic effects: given orally, alone; for Anti-allodynic efficacy: Maximal efficacy (AUC: X ± SE): most efficacious dose po: Pregabalin 31.6 mg/Kg, S-ketorolac 1.0 mg/Kg, AUC of 180-min temporal course, maximum possible 300 au, n=6; for maximal anti-allodynic effect (AUC): pregabalin 31.6 mg/Kg po, S-Ket 1.0 mg/Kg po, 180-min temporal course; for Anti-allodynic efficacy: Relative efficacy: relative to pregabalin, Pregabalin 31.6 mg/Kg po, S-ketorolac 1.0 mg/Kg po
Protocol: as §1, §2, §3
The acetone test (cold allodynia) was performed and assessed as follows: Once the Von Frey test was finished, rats were left to rest over the metallic mesh, and after a 5-10 minute period, 0.1 mL of acetone was applied on the sole callosities of the right hindlimb with a syringe with a flexible plastic point from under the mesh. Then, a chronometer recorded the time in seconds in which the animals kept the hindlimb away from the mesh during the first 60 seconds after being exposed to acetone. The response time of the right hindlimb was measured. Three measurements were made (1 measurement every 2 minutes).
as §4
All combinations to be assessed were designed. It was decided to evaluate combinations with 24 different proportions, to have the fullest possible notion of the interaction of these 2 analgesics, and for obtaining and determining the optimal combinations in terms of efficacy and anti-allodynic potentiation.

[3] = pregabalin 10.0 mg/Kg po alone, reached 3 h after administration

With `CC(C)C[C@H](CN)CC(=O)O` [Pregabalin, (3S)-3-(aminomethyl)-5-methylhexanoic acid] as the molecule, how does the “dose dependence of anti-hyperalgesic effects” value [1] read?
The value was “dose-dependent anti-hyperalgesic effects”.

What about the “more anti-hyperalgesia than S-ketorolac” value ([1]; most effective oral doses given alone) of the same molecule?
Its value is 49%.

And the “Antihyperalgesic efficacy: Maximal efficacy (AUC: X ± SE)” value [1]?
Its value is 220.4 ± 12.3.

And the “antihyperalgesic effect” value ([1]; pregabalin 0.316 mg/Kg po alone, over the assessment period)?
The value was “practically no antihyperalgesic effects”.

And the “antihyperalgesic Emax” value [1, 3]?
Its value is 78.3±5.4%.

And the “maximal antihyperalgesic effect (AUC)” value [1]?
The value was 220.4±12.3 ua.

What about the “Antihyperalgesic efficacy: Relative efficacy” value [1] of the same molecule?
The value was 1.0.

What about the “anti-allodynic effect” value ([2]; 0.0316 mg/Kg dose) of the same molecule?
Its value is “almost no anti-allodynic effect”.

What about the “anti-allodynic effect” value ([2]; 31.6 mg/Kg dose) of the same molecule?
Its value is “significant anti-allodynic effect”.

What about the “dose dependence of anti-allodynic effects” value [2] of the same molecule?
Its value is “dose-dependent anti-allodynic effects”.

What about the “Anti-allodynic efficacy: Maximal efficacy (AUC: X ± SE)” value [2] of the same molecule?
The value was 241.6 ± 9.5.

What about the “anti-allodynic Emax” value [2, 3] of the same molecule?
The value was 83.4±3.7%.

And the “maximal anti-allodynic effect (AUC)” value [2]?
The value was 241.6±9.5 ua.

And the “Anti-allodynic efficacy: Relative efficacy” value [2]?
The value was 1.0.

With `O=C(c1ccccc1)c1ccc2n1CCC2C(=O)O` (centres unmarked) [S-ketorolac, 5-Benzoyl-2,3-dihydro-1H-pyrrolizine-1-carboxylic acid] as the molecule, how does the “antihyperalgesic effect” value ([1]; S-ketorolac 1.0 mg/Kg po alone) read?
Its value is “little antihyperalgesic effect”.

And the “antihyperalgesic Emax” value ([1]; S-ketorolac 1.0 mg/Kg po alone, reached 60 minutes after administration)?
The value was 40.0±5.8%.

And the “antihyperalgesic efficacy as percent of that delivered by pregabalin” value ([1]; S-ketorolac 3.16 mg/Kg po vs pregabalin 31.6 mg/Kg po)?
The value was 51%.

What about the “dose dependence of anti-hyperalgesic effects” value [1] of the same molecule?
The value was “dose-dependent anti-hyperalgesic effects”.

What about the “Antihyperalgesic efficacy: Maximal efficacy (AUC: X ± SE)” value [1] of the same molecule?
Its value is 112.5 ± 3.5.

What about the “maximal antihyperalgesic effect (AUC)” value [1] of the same molecule?
The value was 112.5±3.5 ua.

And the “Antihyperalgesic efficacy: Relative efficacy” value [1]?
The value was 0.51.

What about the “anti-allodynic effect” value ([2]; 0.0316 mg/Kg dose) of the same molecule?
Its value is “almost no anti-allodynic effect”.

And the “anti-allodynic effect” value ([2]; 1.0 mg/Kg dose)?
The value was “significant anti-allodynic effect”.

What about the “anti-allodynic Emax” value ([2]; S-ketorolac 0.316 mg/Kg po alone, reached 30 minutes after administration) of the same molecule?
The value was 44.0±7.7%.

What about the “anti-allodynic efficacy as percent of that induced by oral pregabalin” value ([2]; S-ketorolac 1.0 mg/Kg po vs pregabalin 31.6 mg/Kg po) of the same molecule?
The value was 46%.

What about the “dose dependence of anti-allodynic effects” value [2] of the same molecule?
Its value is “dose-dependent anti-allodynic effects”.

What about the “Anti-allodynic efficacy: Maximal efficacy (AUC: X ± SE)” value [2] of the same molecule?
The value was 111.2 ± 20.3.

What about the “maximal anti-allodynic effect (AUC)” value [2] of the same molecule?
The value was 111.2±20.3 ua.

What about the “Anti-allodynic efficacy: Relative efficacy” value [2] of the same molecule?
The value was 0.46.
